Experimental data published in article PMC11542593, “Vascular endothelial growth factor receptor 2 as a potential host target for the inhibition of enterovirus replication” (Journal of Virology, 2024).
Structures can show the parent of a compound that is named as a salt.

Columns and labels:
[1] = CellTiter-Glo luminescent cell viability assay (cytotoxicity); details: human
Description: Fig. S1. (A) RD cells were treated with the indicated concentrations of inhibitors and incubated at 37°C for 24 h. CellTiter‐Glo® luminescent cell viability assay was used to measure the CC50 of selected inhibitors. […] (B) RD cells treated with the selected inhibitors (10 μM) were inoculated with EV-A71 at an MOI of 0.01. At 48 hpi, cells were harvested to detect the expression level of VP1 by western blotting.

[2] = tested on: EV-A71; test: Viral load reduction assay in RD cells (RT-qPCR, TCID50, VP1 Western blot); assay type: cell-based, Human enterovirus A71; details: for EV-A71 viral load and viral titer, dose dependence: indicated noncytotoxic concentrations, MOI 0.1, 24 h; for EV-A71 viral load and viral titer in cell lysates and supernatant: 10 μM, MOI 0.01, 24 h
Description: Detection of cellular mRNA expression and viral load was performed as described previously ([24]). In brief, the infected or mock-infected cells were lysed and applied to total RNA extraction by using the MiniBEST Universal RNA Extraction Kit (TaKaRa, Code No.9767). Viral RNA in the supernatant was extracted with the MiniBEST Viral RNA Extraction Kit (TaKaRa, Code No.9766). Reverse transcription was performed using the PrimeScript RT reagent Kit (TaKaRa, Code No.PR037A) with an oligo (dT) primer. The resultant cDNAs were used for qPCR assay with the Light Cycler 480 SYBR Green I Master Mix (Roche) to measure the mRNA expression level of cellular genes or viral load in supernatants. The relative viral gene copy was determined by RT-qPCR, using GAPDH as an internal reference.
The viral titer in the indicated samples was determined by TCID50 assay as described previously ([25]). Briefly, serially diluted samples from 10^−1 to 10^−8 in DMEM were inoculated to RD cells, BGMK cells, or MRC-5 in 96‐well plates. The cells were then incubated for 2 to 3 days at 37°C. TCID50 was calculated by counting the wells with cytopathic effect in infected cells using the Reed–Muench method.
(§1) Western blot analysis was performed as described previously ([26]). In brief, the indicated cell samples were lysed in RIPA buffer supplemented with protease inhibitors (Thermo Fisher Scientific, 78430). The cell lysates were then separated in 10% SDS-PAGE and transferred to a 0.45-µm nitrocellulose membrane. After blocking, the membrane was incubated with an against VP1 antibody (GeneTex, GTX132339), VEGFR1 antibody (Abcam, ab32152), VEGFR2 antibody (Abcam, ab134191), phosphorylated VEGFR2 antibody (Tyr951) (CST 4991), VEGFR3 antibody (Beyotime, AF6918), Akt antibody (CST 4685), phosphorylated Akt antibody (CST 4060), or GAPDH antibody (GeneTex, GTX627408) diluted 1:5,000 in primary antibody dilution buffer overnight at 4°C, followed by corresponding secondary staining. The blots were visualized by western horseradish peroxidase substrate and imaged with Gel Doc XR+.
The results represent cell viability in the EV-A71-infected RD cells or 2D human intestinal organoids treated with DMSO (Negative control), Pirodavir (Positive control), or indicated VEGFR inhibitor (10 µM) relative to those in mock-infected RD cells or 2D human intestinal organoids. […] Significant inhibition of EV-A71 infection was found for both cell lysate (left) and supernatant (right) using RT-qPCR analysis. The results represent the viral load in the cells treated with indicated inhibitors relative to that in DMSO-treated cells. (C) Viral titer was also determined for inhibitor-treated samples in TCID50 assays. […] (D) Representative images of immunofluorescence assay for selected inhibitors using Rabbit anti‐VP1 antibody (green). Nuclei are counterstained with DAPI (blue). Scale bar, 50 µm.
Nuclei are counterstained with DAPI (blue). Scale bar, 50 µm.
Fig. S2. […] The results represent the viral load in the cells treated with indicated concentration of VEGFR inhibitors relative to that in DMSO-treated cells. Viral titer was also determined for samples treated with indicated concentrations of VEGFR inhibitors in TCID50 assays.
(§2) Fig. S7. Viral reduction in RD cells with Src inhibitor treatment. […] Significant inhibition of EV-A71 infection was found for both cell lysate (left) and supernatant (middle) using RT-qPCR analysis. The results represent the viral load in the cells treated with Dasatinib relative to that in DMSO-treated cells. Viral titer was also determined for inhibitor-treated samples in TCID50 assays (right). […] (C) VP1 protein levels were measured for samples treated with DMSO or Dasatinib using western blotting.
Fig. S8. Viral reduction in RD cells with Akt inhibitor treatment. […] Significant inhibition of EV-A71 infection was found for both cell lysate (left) and supernatant (middle) using RT-qPCR analysis. […]

[3] = tested on: EV-A71; test: Cytopathic effect (CPE) inhibition assay in RD cells; assay type: cell-based, Human enterovirus A71; details: EV-A71, RD cells; for EC50: Enterovirus A, EVA71, read-out: EC50, compound concentration required to achieve 50% protection from virus-induced cytopathogenicity
[4] = tested on: Akt phosphorylation; test: Western blot of phosphorylated Akt and total Akt in RD cells; assay type: cell-based; details: total Akt levels unaltered
Description: as §1
as §2, with “S8.” for “S7.”, “Akt” for “Src”, “MK-2206” for “Dasatinib”, “The levels of VP1, phosphorylated Akt and total Akt” for “VP1”, “protein” for “protein levels”
Fig. S9. […] (A) RD cells were infected with EV-A71 at an MOI of 1, and cell lysates were collected at the indicated times. Western blotting assays were then performed to assess the levels of phosphorylated Akt and total Akt. (B)The plasmids pVEGFR2 or pEmpty vector were transfected into RD cells. At the indicated times post-transfection, cells were harvested to detect the expression levels of phosphorylated Akt and total Akt by western blotting. […] Western blotting assays were then performed to assess the levels of phosphorylated Akt and total Akt. […] At 1 hpi, cells were harvested to detect the expression levels of phosphorylated Akt and total Akt by western blotting. […]

Row | SMILES | CC50 at 24 h ([1]; RD cells) [µM] | EV-A71 viral load and viral titer, dose dependence [2] | CC50 at 24 h [1] [µM] | SI (selectivity index), ratio CC50/EC50 [3] | EC50 [3] [µM] | EV-A71 viral load and viral titer in cell lysates and supernatant [2] | EV-A71 structural protein VP1 expression (Western blot) ([2]; vs DMSO) | Akt phosphorylation following EV-A71 infection [4]
1 | CNC(=O)c1ccccc1Sc1ccc2c(/C=C/c3ccccn3)n[nH]c2c1 [Axitinib] | 104 ± 17.6 | dose-dependent inhibition |  |  |  |  |  | 
2 | Cc1cc2c(F)c(Oc3ncnn4cc(OC[C@@H](C)O)c(C)c34)ccc2[nH]1 [Brivanib] |  | dose-dependent inhibition | 41.3 ± 2.83 | 21.28 | 1.94 ± 0.33 |  |  | 
3 | Cc1nc(Nc2ncc(C(=O)Nc3c(C)cccc3Cl)s2)cc(N2CCN(CCO)CC2)n1 [Dasatinib] |  |  |  |  |  | significantly reduced | markedly decreased | 
4 | NC1(c2ccc(-c3nc4ccn5c(=O)[nH]nc5c4cc3-c3ccccc3)cc2)CCC1 [MK-2206, MK-2206 dihydrochloride] |  |  |  |  |  | significantly suppressed |  | significantly inhibited Akt phosphorylation
5 | CCOC(=O)c1ccc(OCCC2CCN(c3ccc(C)nn3)CC2)cc1 [Pirodavir] |  |  | 52.9 ± 1.25 | 120.14 | 0.44 ± 0.08 |  |  | 
6 | Cc1[nH]c(/C=C2\C(=O)Nc3ccc(F)cc32)c(C)c1C(=O)NC[C@H](O)CN1CCOCC1 [SU14813] | 26.4 ± 6.09 | dose-dependent inhibition |  | 15.23 | 1.73 ± 0.18 |  |  | 
